Experimental data as given in ChEMBL document CHEMBL4507263, “Data for DCP probe BAY-474” (2021).

Assays:
[1] = molecular target: Tyrosine-protein kinase ABL2 (Homo sapiens) (UniProt P42684); settings: Compound concentration 1000.0 nM
[2] = molecular target: Ephrin type-B receptor 2 (Homo sapiens) (UniProt P29323); settings: Compound concentration 1000.0 nM
[3] = molecular target: Tyrosine-protein kinase ZAP-70 (Homo sapiens) (UniProt P43403); settings: Compound concentration 1000.0 nM
[4] = molecular target: Serine/threonine-protein kinase Sgk2 (Homo sapiens) (UniProt Q9HBY8); settings: Compound concentration 1000.0 nM
[5] = molecular target: Serine/threonine-protein kinase MRCK beta (Homo sapiens) (UniProt Q9Y5S2); settings: Compound concentration 1000.0 nM
[6] = tested on: Epidermal growth factor receptor (Homo sapiens), P00533 [L858R,T790M]; settings: Compound concentration 1000.0 nM
[7] = molecular target: Tyrosine-protein kinase receptor UFO (Homo sapiens) (UniProt P30530); settings: Compound concentration 1000.0 nM
[8] = molecular target: BMP-2-inducible protein kinase (Homo sapiens) (UniProt Q9NSY1); settings: Compound concentration 1000.0 nM
[9] = molecular target: Eukaryotic translation initiation factor 2-alpha kinase 1 (Homo sapiens) (UniProt Q9BQI3); settings: Compound concentration 1000.0 nM
[10] = molecular target: Serine/threonine-protein kinase WNK4 (Homo sapiens) (UniProt Q96J92); settings: Compound concentration 1000.0 nM
[11] = molecular target: MAP/microtubule affinity-regulating kinase 3 (Homo sapiens) (UniProt P27448); settings: Compound concentration 1000.0 nM
[12] = molecular target: Mitogen-activated protein kinase kinase kinase kinase 1 (Homo sapiens) (UniProt Q92918); settings: Compound concentration 1000.0 nM
[13] = molecular target: MAP kinase-activated protein kinase 2 (Homo sapiens) (UniProt P49137); settings: Compound concentration 1000.0 nM
[14] = molecular target: Atypical kinase COQ8B, mitochondrial (Homo sapiens) (UniProt Q96D53); settings: Compound concentration 1000.0 nM
[15] = molecular target: Mitogen-activated protein kinase kinase kinase 14 (Homo sapiens) (UniProt Q99558); settings: Compound concentration 1000.0 nM
[16] = tested on: Receptor-type tyrosine-protein kinase FLT3 (Homo sapiens), P36888 [UNDEFINED MUTATION]; settings: Compound concentration 1000.0 nM
[17] = molecular target: RAC-gamma serine/threonine-protein kinase (Homo sapiens) (UniProt Q9Y243); settings: Compound concentration 1000.0 nM
[18] = tested on: Tyrosine-protein kinase ABL1 (Homo sapiens), P00519 [M351T]; settings: Compound concentration 1000.0 nM
[19] = molecular target: Rho-associated protein kinase 1 (Homo sapiens) (UniProt Q13464); settings: Compound concentration 1000.0 nM
[20] = tested on: Proto-oncogene tyrosine-protein kinase receptor Ret (Homo sapiens), P07949 [V804M]; settings: Compound concentration 1000.0 nM
[21] = molecular target: Cyclin-dependent kinase 13 (Homo sapiens) (UniProt Q14004); settings: Compound concentration 1000.0 nM
[22] = molecular target: Mitogen-activated protein kinase kinase kinase 3 (Homo sapiens) (UniProt Q99759); settings: Compound concentration 1000.0 nM
[23] = molecular target: Serine/threonine-protein kinase pim-3 (Homo sapiens) (UniProt Q86V86); settings: Compound concentration 1000.0 nM
[24] = tested on: Mast/stem cell growth factor receptor Kit (Homo sapiens), P10721 [V559D,V654A]; settings: Compound concentration 1000.0 nM
[25] = molecular target: Fibroblast growth factor receptor 1 (Homo sapiens) (UniProt P11362); settings: Compound concentration 1000.0 nM
[26] = molecular target: Focal adhesion kinase 1 (Homo sapiens) (UniProt Q05397); settings: Compound concentration 1000.0 nM
[27] = molecular target: Hepatocyte growth factor receptor (Homo sapiens, UniProt P08581); settings: Compound concentration 1000.0 nM
[28] = molecular target: Serine/threonine-protein kinase Nek2 (Homo sapiens) (UniProt P51955); test: NEK2 (h) Millipore kinase activity assay; settings: Compound concentration 1.0 uM
[29] = molecular target: Fibroblast growth factor receptor 4 (Homo sapiens) (UniProt P22455); test: FGFR4 (h) Millipore kinase activity assay; settings: Compound concentration 1.0 uM
[30] = molecular target: Vascular endothelial growth factor receptor 1 (Homo sapiens) (UniProt P17948); test: Flt1 (h) Millipore kinase activity assay; settings: Compound concentration 1.0 uM
[31] = molecular target: Tyrosine-protein kinase SYK (Homo sapiens) (UniProt P43405); test: Syk (h) Millipore kinase activity assay; settings: Compound concentration 1.0 uM
[32] = molecular target: Serine/threonine-protein kinase PLK2 (Homo sapiens) (UniProt Q9NYY3); test: Snk (h) Millipore kinase activity assay; settings: Compound concentration 1.0 uM
[33] = molecular target: Rho-associated protein kinase 2 (Homo sapiens) (UniProt O75116); test: ROCK-II (h) Millipore kinase activity assay; settings: Compound concentration 1.0 uM
[34] = molecular target: ATP-sensitive inward rectifier potassium channel 11 (Cricetulus griseus) (UniProt A0A3L7HHE1); test: Inhibition of Potassium Channel [KATP] at 10 µM in the Eurofins-Panlabs radioligand binding assay (Eurofins_assay_265600); settings: Cricetinae; Compound concentration 10.0 uM
[35] = molecular target: Serine/threonine-protein kinase WNK2 (Homo sapiens) (UniProt Q9Y3S1); test: WNK2 (h) Millipore kinase activity assay; settings: Compound concentration 1.0 uM
[36] = molecular target: Protein kinase C epsilon type (Homo sapiens) (UniProt Q02156); test: PKCepsilon (h) Millipore kinase activity assay; settings: Compound concentration 1.0 uM
[37] = molecular target: Tyrosine-protein kinase ABL2 (Homo sapiens) (UniProt P42684); test: Arg (h) Millipore kinase activity assay; settings: Compound concentration 1.0 uM
[38] = molecular target: T1, Muscarinic acetylcholine receptor M1 (Homo sapiens) (UniProt P11229); settings: Compound concentration 10.0 uM
T1 sequence (whole entry): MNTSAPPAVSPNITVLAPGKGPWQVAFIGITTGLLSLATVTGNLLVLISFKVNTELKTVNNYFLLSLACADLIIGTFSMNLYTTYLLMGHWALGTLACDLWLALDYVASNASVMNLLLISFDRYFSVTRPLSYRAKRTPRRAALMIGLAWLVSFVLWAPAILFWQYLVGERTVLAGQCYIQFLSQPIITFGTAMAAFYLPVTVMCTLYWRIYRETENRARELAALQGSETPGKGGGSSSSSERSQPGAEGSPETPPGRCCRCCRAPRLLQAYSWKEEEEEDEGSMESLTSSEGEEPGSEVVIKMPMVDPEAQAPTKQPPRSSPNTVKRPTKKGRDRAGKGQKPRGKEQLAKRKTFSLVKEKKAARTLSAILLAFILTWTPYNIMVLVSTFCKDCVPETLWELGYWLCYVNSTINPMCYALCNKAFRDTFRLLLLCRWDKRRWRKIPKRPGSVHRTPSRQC

Tyrosine-protein kinase ABL2 (Homo sapiens), sequence (P42684 whole entry): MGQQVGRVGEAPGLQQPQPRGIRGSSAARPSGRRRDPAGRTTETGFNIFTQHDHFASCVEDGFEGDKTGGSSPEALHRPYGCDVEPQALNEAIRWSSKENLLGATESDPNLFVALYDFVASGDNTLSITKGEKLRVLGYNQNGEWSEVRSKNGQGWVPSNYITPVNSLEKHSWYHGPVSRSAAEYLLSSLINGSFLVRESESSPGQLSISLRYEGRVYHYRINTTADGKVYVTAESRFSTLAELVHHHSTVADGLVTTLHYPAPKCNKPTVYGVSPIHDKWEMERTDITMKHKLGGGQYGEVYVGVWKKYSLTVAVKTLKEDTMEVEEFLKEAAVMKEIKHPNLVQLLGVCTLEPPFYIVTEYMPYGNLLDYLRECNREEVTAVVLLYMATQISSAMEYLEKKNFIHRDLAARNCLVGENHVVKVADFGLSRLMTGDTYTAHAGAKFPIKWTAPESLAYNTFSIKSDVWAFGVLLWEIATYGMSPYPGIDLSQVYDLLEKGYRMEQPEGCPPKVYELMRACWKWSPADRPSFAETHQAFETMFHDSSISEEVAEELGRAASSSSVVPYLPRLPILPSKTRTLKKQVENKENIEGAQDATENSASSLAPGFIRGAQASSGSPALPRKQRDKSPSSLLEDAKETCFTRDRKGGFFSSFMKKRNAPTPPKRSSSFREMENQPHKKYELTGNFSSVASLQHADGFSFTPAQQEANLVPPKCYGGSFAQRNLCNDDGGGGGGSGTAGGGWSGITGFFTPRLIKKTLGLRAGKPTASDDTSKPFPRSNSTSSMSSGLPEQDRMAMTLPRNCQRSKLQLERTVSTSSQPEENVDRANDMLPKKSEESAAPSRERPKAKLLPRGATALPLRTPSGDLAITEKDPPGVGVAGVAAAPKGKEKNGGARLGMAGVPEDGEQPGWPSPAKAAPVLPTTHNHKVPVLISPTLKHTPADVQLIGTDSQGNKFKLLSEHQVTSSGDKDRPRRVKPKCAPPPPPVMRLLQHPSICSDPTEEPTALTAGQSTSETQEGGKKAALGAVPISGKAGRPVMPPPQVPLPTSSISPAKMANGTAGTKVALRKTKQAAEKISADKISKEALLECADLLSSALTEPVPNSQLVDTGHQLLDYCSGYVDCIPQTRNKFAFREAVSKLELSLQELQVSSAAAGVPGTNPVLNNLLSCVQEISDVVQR
Mast/stem cell growth factor receptor Kit (Homo sapiens), P10721 [V559D,V654A], sequence (P10721 whole entry V559D/V654A): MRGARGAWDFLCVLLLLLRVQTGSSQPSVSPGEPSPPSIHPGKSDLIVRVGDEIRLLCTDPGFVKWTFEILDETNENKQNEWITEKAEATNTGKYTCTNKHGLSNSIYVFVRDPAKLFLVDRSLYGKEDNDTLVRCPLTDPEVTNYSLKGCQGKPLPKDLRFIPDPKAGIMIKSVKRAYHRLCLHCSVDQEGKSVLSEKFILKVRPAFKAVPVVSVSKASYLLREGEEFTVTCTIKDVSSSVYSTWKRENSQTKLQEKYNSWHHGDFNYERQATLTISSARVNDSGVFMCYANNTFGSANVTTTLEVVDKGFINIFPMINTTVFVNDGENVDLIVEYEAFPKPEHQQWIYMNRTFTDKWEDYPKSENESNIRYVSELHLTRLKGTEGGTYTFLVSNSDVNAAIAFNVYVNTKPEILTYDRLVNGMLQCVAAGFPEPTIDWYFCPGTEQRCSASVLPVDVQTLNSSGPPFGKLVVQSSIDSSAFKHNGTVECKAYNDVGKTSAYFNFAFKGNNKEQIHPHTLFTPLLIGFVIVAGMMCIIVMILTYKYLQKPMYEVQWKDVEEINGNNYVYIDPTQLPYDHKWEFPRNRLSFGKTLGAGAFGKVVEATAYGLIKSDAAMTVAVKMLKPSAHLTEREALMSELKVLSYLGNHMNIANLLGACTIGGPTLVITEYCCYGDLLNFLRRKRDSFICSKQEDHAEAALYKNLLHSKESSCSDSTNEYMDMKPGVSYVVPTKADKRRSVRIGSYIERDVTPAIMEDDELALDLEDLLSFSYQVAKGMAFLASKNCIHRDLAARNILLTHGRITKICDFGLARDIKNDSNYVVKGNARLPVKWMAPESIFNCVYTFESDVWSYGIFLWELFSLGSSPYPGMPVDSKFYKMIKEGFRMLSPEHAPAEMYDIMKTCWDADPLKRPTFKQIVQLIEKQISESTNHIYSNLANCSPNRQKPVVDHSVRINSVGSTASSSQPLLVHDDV
Proto-oncogene tyrosine-protein kinase receptor Ret (Homo sapiens), P07949 [V804M], sequence (P07949 whole entry V804M): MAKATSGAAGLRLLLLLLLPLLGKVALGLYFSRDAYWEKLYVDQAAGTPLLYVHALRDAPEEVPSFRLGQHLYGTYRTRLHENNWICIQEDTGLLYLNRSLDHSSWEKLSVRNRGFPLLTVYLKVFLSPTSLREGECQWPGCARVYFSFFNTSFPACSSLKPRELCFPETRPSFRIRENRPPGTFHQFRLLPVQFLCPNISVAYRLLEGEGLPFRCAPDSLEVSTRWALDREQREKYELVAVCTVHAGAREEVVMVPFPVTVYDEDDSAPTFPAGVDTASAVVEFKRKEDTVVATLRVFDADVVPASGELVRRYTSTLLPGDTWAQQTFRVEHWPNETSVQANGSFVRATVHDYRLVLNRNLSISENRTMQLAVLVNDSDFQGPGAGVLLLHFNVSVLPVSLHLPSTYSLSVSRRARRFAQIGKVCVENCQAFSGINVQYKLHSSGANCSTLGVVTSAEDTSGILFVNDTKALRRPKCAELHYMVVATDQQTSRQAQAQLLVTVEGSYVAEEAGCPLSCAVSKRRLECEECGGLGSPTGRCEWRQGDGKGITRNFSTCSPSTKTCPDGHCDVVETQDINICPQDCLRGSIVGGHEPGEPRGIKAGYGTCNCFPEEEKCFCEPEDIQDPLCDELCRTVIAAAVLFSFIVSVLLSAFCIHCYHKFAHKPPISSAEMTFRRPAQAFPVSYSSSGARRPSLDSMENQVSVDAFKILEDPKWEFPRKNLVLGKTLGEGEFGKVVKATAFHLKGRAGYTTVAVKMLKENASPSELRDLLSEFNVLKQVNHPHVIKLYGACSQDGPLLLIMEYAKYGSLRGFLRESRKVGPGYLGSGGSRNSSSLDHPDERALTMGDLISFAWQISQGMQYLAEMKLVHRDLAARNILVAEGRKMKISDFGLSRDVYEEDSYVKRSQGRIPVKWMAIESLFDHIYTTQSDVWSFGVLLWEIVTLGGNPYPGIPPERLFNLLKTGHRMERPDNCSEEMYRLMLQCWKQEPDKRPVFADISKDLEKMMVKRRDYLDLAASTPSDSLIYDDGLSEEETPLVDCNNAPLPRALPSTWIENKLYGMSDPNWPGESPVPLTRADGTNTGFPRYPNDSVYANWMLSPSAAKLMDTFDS
Receptor-type tyrosine-protein kinase FLT3 (Homo sapiens), P36888 [UNDEFINED MUTATION], sequence (P36888 whole entry, looked up, change not shown): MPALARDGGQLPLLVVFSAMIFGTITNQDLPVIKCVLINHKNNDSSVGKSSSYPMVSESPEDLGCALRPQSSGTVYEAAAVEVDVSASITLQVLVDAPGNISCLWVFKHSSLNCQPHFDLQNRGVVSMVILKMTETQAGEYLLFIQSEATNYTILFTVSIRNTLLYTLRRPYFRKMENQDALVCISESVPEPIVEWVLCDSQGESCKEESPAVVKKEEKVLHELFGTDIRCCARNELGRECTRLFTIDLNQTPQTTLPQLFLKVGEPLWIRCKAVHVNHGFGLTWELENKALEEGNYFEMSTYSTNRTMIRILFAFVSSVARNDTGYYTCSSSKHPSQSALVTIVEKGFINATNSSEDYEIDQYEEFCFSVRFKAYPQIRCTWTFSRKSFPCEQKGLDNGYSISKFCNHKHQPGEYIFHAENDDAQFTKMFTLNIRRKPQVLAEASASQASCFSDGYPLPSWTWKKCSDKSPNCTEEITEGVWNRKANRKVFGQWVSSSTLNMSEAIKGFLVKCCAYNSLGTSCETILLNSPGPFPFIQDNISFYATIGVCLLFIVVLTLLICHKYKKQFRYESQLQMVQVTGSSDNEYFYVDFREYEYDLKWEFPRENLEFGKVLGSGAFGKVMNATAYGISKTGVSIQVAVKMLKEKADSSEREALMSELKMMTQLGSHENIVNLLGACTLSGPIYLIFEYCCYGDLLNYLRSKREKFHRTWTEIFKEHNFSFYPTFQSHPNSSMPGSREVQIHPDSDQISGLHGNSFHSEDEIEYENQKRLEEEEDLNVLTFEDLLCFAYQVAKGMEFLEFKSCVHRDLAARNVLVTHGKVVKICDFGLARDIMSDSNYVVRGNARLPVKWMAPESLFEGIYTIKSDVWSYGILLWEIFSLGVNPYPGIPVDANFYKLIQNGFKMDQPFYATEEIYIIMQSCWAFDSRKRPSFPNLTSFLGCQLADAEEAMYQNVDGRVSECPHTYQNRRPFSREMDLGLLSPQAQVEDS
Eukaryotic translation initiation factor 2-alpha kinase 1 (Homo sapiens), sequence (Q9BQI3 whole entry): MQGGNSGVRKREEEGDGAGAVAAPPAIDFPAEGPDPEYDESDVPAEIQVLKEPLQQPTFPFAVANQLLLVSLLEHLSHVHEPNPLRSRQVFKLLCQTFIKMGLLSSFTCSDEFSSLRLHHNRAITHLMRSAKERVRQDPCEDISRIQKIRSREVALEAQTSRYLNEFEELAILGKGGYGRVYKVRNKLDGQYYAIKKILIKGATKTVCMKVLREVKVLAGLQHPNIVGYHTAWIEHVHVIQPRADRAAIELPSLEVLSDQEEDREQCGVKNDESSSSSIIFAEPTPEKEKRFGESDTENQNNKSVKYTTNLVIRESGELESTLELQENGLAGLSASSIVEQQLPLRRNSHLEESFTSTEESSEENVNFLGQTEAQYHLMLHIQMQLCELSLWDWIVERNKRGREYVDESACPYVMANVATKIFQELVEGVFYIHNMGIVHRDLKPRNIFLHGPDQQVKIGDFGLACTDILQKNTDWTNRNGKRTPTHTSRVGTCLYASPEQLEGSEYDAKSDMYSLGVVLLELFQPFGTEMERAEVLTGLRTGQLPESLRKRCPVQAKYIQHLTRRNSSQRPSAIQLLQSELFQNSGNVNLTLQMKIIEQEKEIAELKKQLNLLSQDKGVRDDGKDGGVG

**Q.** How did the residual activity [1] turn out when CC1=C(C#N)[C@@H](c2ccc3[nH]nc(C)c3c2)C(C#N)=C(c2ccc(Cl)cc2)N1 [BAY-827] was run?
**A.** 100%

**Q.** And the residual activity [2]?
**A.** 100%

**Q.** And the residual activity [3]?
**A.** 85.4%

**Q.** What about the residual activity [4] of the same compound?
**A.** 100%

**Q.** What about the residual activity [5] of the same compound?
**A.** 100%

**Q.** And the residual activity [6]?
**A.** 100%

**Q.** What about the residual activity [7] of the same compound?
**A.** 100%

**Q.** And the residual activity [8]?
**A.** 100%

**Q.** And the residual activity [9]?
**A.** 100%

**Q.** And the residual activity [10]?
**A.** 100%

**Q.** What about the residual activity [11] of the same compound?
**A.** 100%

**Q.** And the residual activity [12]?
**A.** 93.1%

**Q.** And the residual activity [13]?
**A.** 100%

**Q.** And the residual activity [14]?
**A.** 78.8%

**Q.** What about the residual activity [15] of the same compound?
**A.** 100%

**Q.** What about the residual activity [16] of the same compound?
**A.** 93.9%

**Q.** What about the residual activity [17] of the same compound?
**A.** 82.8%

**Q.** And the residual activity [18]?
**A.** 94.6%

**Q.** What about the residual activity [19] of the same compound?
**A.** 68.5%

**Q.** What about the residual activity [20] of the same compound?
**A.** 73.8%

**Q.** And the residual activity [21]?
**A.** 86.6%

**Q.** And the residual activity [22]?
**A.** 100%

**Q.** What about the residual activity [23] of the same compound?
**A.** 100%

**Q.** And the residual activity [24]?
**A.** 100%

**Q.** What about the residual activity [25] of the same compound?
**A.** 86.6%

**Q.** And the residual activity [26]?
**A.** 100%

**Q.** And the residual activity [27]?
**A.** 17.2%

**Q.** With CC1=C(C#N)C(c2ccc3[nH]nc(C)c3c2)C(C#N)=C(C)N1 [BAY-474] as the compound, how does the inhibition [28] read?
**A.** -5%

**Q.** What about the inhibition [29] of the same compound?
**A.** 18%

**Q.** And the inhibition [30]?
**A.** 69%

**Q.** What about the inhibition [31] of the same compound?
**A.** 8%

**Q.** What about the inhibition [32] of the same compound?
**A.** 3%

**Q.** What about the inhibition [33] of the same compound?
**A.** -3%

**Q.** And the inhibition [34]?
**A.** 9%

**Q.** And the inhibition [35]?
**A.** -8%

**Q.** What about the inhibition [36] of the same compound?
**A.** 26%

**Q.** And the inhibition [37]?
**A.** 26%

**Q.** And the inhibition [38]?
**A.** 0%
